{"source": "patent EP0565593B1", "about": "“REDUCING PESTICIDAL INTERACTIONS IN CROPS” (priority 1990, dated 1992)", "key": {"Corn [1]": {"system": "Corn"}, "Corn [2]": {"system": "Corn", "assay": "Greenhouse test Procedure VII: biocide and antidote in furrow, herbicide POE (Examples 39-42, 48-50, 56-58; Tables 38-41, 47-49, 55-57)", "type": "in vivo", "procedure,_shortened": "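Corn seed was planted in greenhouse pots, with COUNTER 15G insecticide plus antidote granules applied in-furrow (e.g. 1.1 + 0.37 mg a.i./cm, or 227 g/305 m with acetone-applied safeners). About five days later, herbicides in water with 0.25% v/v X-77 were track-sprayed post-emergence at 187 L/ha. Plant response was scored eight days afterward, with two to four replicates.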"}, "Corn [3]": {"system": "Corn", "remark": "listed apart in the source"}}, "note": "Like-named read-outs stand apart in the source and are kept apart here."}
{"compound": "CC1(C)OC(c2ccco2)CN1C(=O)C(Cl)Cl", "note": "(stereo not drawn) [compound 1]", "values": [{"measurement": "safener activity", "setting": "Corn [1]; ACCENT POE + OP insecticides PPI, Tables 11-14", "value": "most active"}, {"measurement": "% Inhibition 5 DAP Corn", "setting": "Corn [1]; Antidote 4.48 + Biocide No. 1 8.96 Kg/Ha PPI, Herb. No. 8 0.07, 5 DAP, before herbicide application", "value": 10, "unit": "%"}, {"measurement": "% Inhibition 13 DAP Corn", "setting": "Corn [1]; Antidote 4.48 + Biocide No. 1 8.96 Kg/Ha PPI, Herb. No. 8 0.07 POE, 13 DAP", "value": 25, "unit": "%"}, {"measurement": "% Inhibition Corn", "setting": "Corn [1]; Antidote 4.48 + Biocide No. 1 8.96 Kg/Ha PPI, Herbicide No. 7 0.28 POE, 13 days after planting", "value": 20, "unit": "%"}, {"measurement": "% Inhibition 5 DAP Corn", "setting": "Corn [1]; Herb. […], 5 DAP, before herbicide application", "value": 0, "unit": "%"}, {"measurement": "% Inhibition Corn", "setting": "Corn [1]; Table 14: Herbicide No. 7 (ACCENT) 0.84 Kg/Ha POE + Biocide No. 2 8.96 Kg/Ha PPI + antidote 4.48 Kg/Ha PPI, 13 days after planting, 8 days after herbicide", "value": 5, "unit": "%"}, {"measurement": "% Inhibition Corn", "setting": "Corn [1]; […], 13 days after planting, 8 days after herbicide", "value": 5, "unit": "%"}, {"measurement": "% Inhibition Corn", "setting": "Corn [1]; […], observed 9 days later (Table 29)", "value": 10, "unit": "%"}, {"measurement": "% Inhibition Corn", "setting": "Corn [1]; […], observed 9 days later (Table 30)", "value": 35, "unit": "%"}, {"measurement": "% Inhibition Corn", "setting": "Corn [1]; […], observed 10 days after herbicide application", "value": 55, "unit": "%"}, {"measurement": "% Inhibition 5 DAP Corn", "setting": "Corn [1]; in vivo", "value": 30, "unit": "%"}, {"measurement": "% Inhibition 13 DAP Corn", "setting": "Corn [1]; in vivo", "value": 20, "unit": "%"}, {"measurement": "activity in reducing corn injury", "setting": "Corn [1]; primisulfuron POE + biocides PPI, Tables 8-10", "value": "most active"}, {"measurement": "% Inhibition Corn", "setting": "Corn [2]; Antidote + Biocide No. 1 in furrow, Herbicide No. 1 0.14 Kg/Ha POE, 8 days after POE", "value": 15, "unit": "%"}, {"measurement": "% Inhibition Corn", "setting": "Corn [2]; Antidote + Biocide No. 1 in furrow, Herbicide No. 4 0.17 Kg/Ha POE, 8 days after POE", "value": 10, "unit": "%"}, {"measurement": "% Inhibition Corn", "setting": "Corn [2]; Antidote + Biocide No. 1 in furrow, Herbicide No. 5 0.07 Kg/Ha POE, 8 days after POE", "value": 15, "unit": "%"}, {"measurement": "% Inhibition Corn", "setting": "Corn [2]; Antidote + Biocide No. 1 in furrow, Herbicide No. 6 0.01 Kg/Ha POE", "value": 15, "unit": "%"}, {"measurement": "% Inhibition Corn", "setting": "Corn [2]; Antidote + Biocide No. 1 in furrow, Herbicide No. 7 0.56 Kg/Ha POE, 8 days after POE", "value": 10, "unit": "%"}, {"measurement": "% Inhibition Corn", "setting": "Corn [2]; Antidote + Biocide No. 1 in furrow, Herbicide No. 9 0.009 Kg/Ha POE", "value": 10, "unit": "%"}, {"measurement": "% Inhibition Corn", "setting": "Corn [2]; Antidote + Biocide No. 1 in furrow, Herbicide No. 10 0.002 Kg/Ha POE, 8 days after POE", "value": 15, "unit": "%"}, {"measurement": "% Inhibition Corn", "setting": "Corn [2]; Antidote + Biocide No. 1 in furrow, Herbicide No. 15 0.0044 Kg/Ha POE, 8 days after POE", "value": 10, "unit": "%"}, {"measurement": "% Inhibition Corn", "setting": "Corn [2]; Antidote + Biocide No. 1 in furrow, Herbicide No. 16 0.01 Kg/Ha POE", "value": 20, "unit": "%"}, {"measurement": "% Inhibition Corn", "setting": "Corn [2]; Antidote + Biocide No. 1 in furrow, Herbicide No. 18 0.0044 Kg/Ha POE", "value": 15, "unit": "%"}, {"measurement": "% Inhibition Corn", "setting": "Corn [2]; Antidote + Biocide No. 1 in furrow, Herbicide No. 19 0.28 Kg/Ha POE", "value": 20, "unit": "%"}, {"measurement": "% Inhibition Corn", "setting": "Corn [2]; Antidote + Biocide No. 1 in furrow, Herbicide No. 21 0.14 Kg/Ha POE", "value": 20, "unit": "%"}, {"measurement": "% Inhibition Corn", "setting": "Corn [2]; Antidote + Biocide No. 1 in furrow, Herbicide No. 23 0.0006 Kg/Ha POE", "value": 20, "unit": "%"}, {"measurement": "% Inhibition Corn", "setting": "Corn [2]; C (COUNTER) + antidote in furrow, C:A Ratio 20, ACCENT 0.56 Kg/Ha POE", "value": 10, "unit": "%"}, {"measurement": "% Inhibition Corn", "setting": "Corn [2]; C (COUNTER) + antidote in furrow, C:A Ratio 20, BEACON 0.28 Kg/Ha POE", "value": 5, "unit": "%"}, {"measurement": "% Inhibition Corn", "setting": "Corn [2]; C (COUNTER) + antidote in furrow, C:A Ratio 40, ACCENT 0.56 Kg/Ha POE", "value": 10, "unit": "%"}, {"measurement": "% Inhibition Corn", "setting": "Corn [2]; C (COUNTER) + antidote in furrow, C:A Ratio 40, BEACON 0.28 Kg/Ha POE", "value": 5, "unit": "%"}, {"measurement": "% Inhibition Corn", "setting": "Corn [2]; C (COUNTER) + antidote in furrow, C:A Ratio 80, ACCENT 0.56 Kg/Ha POE", "value": 10, "unit": "%"}, {"measurement": "% Inhibition Corn", "setting": "Corn [2]; C (COUNTER) + antidote in furrow, C:A Ratio 80, BEACON 0.28 Kg/Ha POE", "value": 10, "unit": "%"}, {"measurement": "% Inhibition Corn", "setting": "Corn [2]; C (COUNTER) + antidote in furrow, C:A Ratio 160, ACCENT 0.56 Kg/Ha POE", "value": 15, "unit": "%"}, {"measurement": "% Inhibition Corn", "setting": "Corn [2]; C (COUNTER) + antidote in furrow, C:A Ratio 160, BEACON 0.28 Kg/Ha POE", "value": 15, "unit": "%"}, {"measurement": "% Inhibition Corn", "setting": "Corn [2]; Herbicide No. 1 0.14 Kg/Ha POE + Biocide No. 1 in furrow, no antidote, 8 days after POE", "value": 35, "unit": "%"}, {"measurement": "% Inhibition Corn", "setting": "Corn [2]; Herbicide No. 1 0.14 Kg/Ha POE alone, 8 days after POE", "value": 0, "unit": "%"}, {"measurement": "% Corn Inhibition C:A Ratios 5", "setting": "Corn [2]; Herbicide No. 8 0.28 Kg/Ha POE + COUNTER 15G 227 g/305 m + antidote in furrow, C:A ratio 5", "value": 3, "unit": "%"}, {"measurement": "% Corn Inhibition C:A Ratios 10", "setting": "Corn [2]; Herbicide No. 8 0.28 Kg/Ha POE + COUNTER 15G 227 g/305 m + antidote in furrow, C:A ratio 10", "value": 3, "unit": "%"}, {"measurement": "% Corn Inhibition C:A Ratios 20", "setting": "Corn [2]; Herbicide No. 8 0.28 Kg/Ha POE + COUNTER 15G 227 g/305 m + antidote in furrow, C:A ratio 20", "value": 0, "unit": "%"}, {"measurement": "% Corn Inhibition C:A Ratios 40", "setting": "Corn [2]; Herbicide No. 8 0.28 Kg/Ha POE + COUNTER 15G 227 g/305 m + antidote in furrow, C:A ratio 40", "value": 0, "unit": "%"}, {"measurement": "% Corn Inhibition C:A Ratios 80", "setting": "Corn [2]; Herbicide No. 8 0.28 Kg/Ha POE + COUNTER 15G 227 g/305 m + antidote in furrow, C:A ratio 80", "value": 3, "unit": "%"}, {"measurement": "% Corn Inhibition C:A Ratios 160", "setting": "Corn [2]; Herbicide No. 8 0.28 Kg/Ha POE + COUNTER 15G 227 g/305 m + antidote in furrow, C:A ratio 160", "value": 13, "unit": "%"}, {"measurement": "safening activity", "setting": "Corn [3]; XRD-498 + OP insecticides, Examples 24-27", "value": "Safening activity was observed"}, {"measurement": "% Inhibition Corn", "setting": "Corn [3]; […], PPI, 13 days after PPI (Table 31)", "value": 25, "unit": "%"}, {"measurement": "reducing corn injury, comparison", "setting": "Corn [3]; in vivo", "value": "superior to No. 28"}]}
